Reference: US20240156104A1, “FUNGI-DERIVED COMPOSITION, ITS PRODUCTION PROCESS AND USES” (NATURAL RESOURCES INSTITUTE FINLAND (LUKE), priority 2021, published 2024)

Tested on: coxsackievirus A9 (CVA9)
Test: cytopathic effect (CPE) inhibition assay against CVA9 in A549 cells
Assay type: cell-based
Conditions: virus treated 37° C. 1 hour; for antiviral activity of commercial ganoderic acids against CVA9 (FIG. 10B): 12.5 μM, 25 μM, 50 μM, 100 μM and 500 μM, MOI 100; for antiviral activity of commercial ganoderic acid against CVA9 (FIG. 10A): 100 μM, 500 μM, 1 mM, 5 mM and 10 mM

## CC(=O)O[C@H]1C[C@H]([C@H](C)CC/C=C(\C)C(=O)O)[C@@]2(C)CC=C3C(=CC[C@H]4C(C)(C)C(=O)CC[C@]34C)[C@]12C [GA TQ, Ganoderic Acid TQ]
  antiviral activity of commercial ganoderic acids against CVA9 (FIG. 10B): fails to demonstrate any antiviral activity

## C/C(=C\CC[C@@H](C)[C@H]1CC[C@@]2(C)C3=CC[C@H]4C(C)(C)[C@@H](O)CC[C@]4(C)C3=CC[C@]12C)C(=O)O [GA Y, Ganoderic Acid Y]
  antiviral activity of commercial ganoderic acids against CVA9 (FIG. 10B): fails to demonstrate any antiviral activity

## C/C(=C\CC[C@@H](C)[C@H]1C[C@H](O)[C@@]2(C)C3=CC[C@H]4C(C)(C)C(=O)CC[C@]4(C)C3=CC[C@]12C)C(=O)O [GA TR, Ganoderic Acid TR]
  antiviral activity of commercial ganoderic acids against CVA9 (FIG. 10B): fails to demonstrate any antiviral activity

## C[C@H](CC(=O)C[C@@H](C)[C@H]1C[C@H](O)[C@@]2(C)C3=C(C(=O)C[C@]12C)[C@@]1(C)CCC(=O)C(C)(C)[C@@H]1C[C@@H]3O)C(=O)O [GA A, Ganoderic Acid A]
MOI 66.7
  antiviral activity of commercial ganoderic acid against CVA9 (FIG. 10A): fails to demonstrate any antiviral activity
MOI 66.7, listed as Ganoderic Acid A
  antiviral activity of commercial ganoderic acid against CVA9 (FIG. 10A): does not possess any antiviral activity
